According to the supplement of paper PMC11061612:

Columns and labels:
AZD1775 = compound: C=CCn1c(=O)c2cnc(Nc3ccc(N4CCN(C)CC4)cc3)nc2n1-c1cccc(C(C)(C)O)n1 [AZD1775]; details: max 3 µM
How it was run: (§1)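 Cancer cell lines were dosed for 72 hours (final DMSO typically 0.2%) after 24 hours at 37°C and 5% CO2 in 1536-well plates containing 7.5 μl DMEM/F12 or RPMI with 10% FBS. Viability came from CellTiter-Glo 2.0 luminescence, scaled between blank-well and DMSO-well means, and dose responses were fitted to a two-parameter logistic curve with a non-linear mixed effects model. The single-agent IC50 was obtained from this fit.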

SRA737 = compound: N#Cc1cnc(Nc2cc(NC[C@H]3CNCCO3)c(C(F)(F)F)cn2)cn1 [SRA737]; details: max 10 µM
How it was run: as §1

Lapatinib = compound: CS(=O)(=O)CCNCc1ccc(-c2ccc3ncnc(Nc4ccc(OCc5cccc(F)c5)c(Cl)c4)c3c2)o1 [Lapatinib]; details: max 10 µM
How it was run: as §1

AZD4320 = compound: CN(CC[C@H](CSC1=CC=CC=C1)NC2=C(C=C(C=C2)S(=O)(=O)NC(=O)C3=CC=C(C=C3)N4CCC(CC4)[C@H](C5=CC=CC=C5C6=CC=C(C=C6)Cl)O)S(=O)(=O)C(F)(F)F)CCO [AZD4320]; details: max 1 µM
How it was run: as §1

SN-38 = compound: CCc1c2c(nc3ccc(O)cc13)-c1cc3c(c(=O)n1C2)COC(=O)[C@]3(O)CC [SN-38]; details: max 0.3 µM
How it was run: as §1

Carboplatin = compound: C1CC(C1)(C(=O)[O-])C(=O)[O-].N.N.[Pt+2] [Carboplatin]; details: max 10 µM
How it was run: as §1

Gefitinib = compound: COc1cc2ncnc(Nc3ccc(F)c(Cl)c3)c2cc1OCCCN1CCOCC1 [Gefitinib]; details: max 10 µM
How it was run: as §1

Palbociclib = compound: CC(=O)c1c(C)c2cnc(Nc3ccc(N4CCNCC4)cn3)nc2n(C2CCCC2)c1=O [Palbociclib]; details: max 10 µM
How it was run: as §1

Dasatinib = compound: CC1=C(C(=CC=C1)Cl)NC(=O)C2=CN=C(S2)NC3=CC(=NC(=N3)C)N4CCN(CC4)CCO [Dasatinib]; details: max 2 µM
How it was run: as §1

Trametinib = compound: CC(=O)Nc1cccc(-n2c(=O)n(C3CC3)c(=O)c3c(Nc4ccc(I)cc4F)n(C)c(=O)c(C)c32)c1 [Trametinib]; details: max 1 µM
How it was run: as §1

AZD5363 = compound: C1CN(CCC1(C(=O)N[C@@H](CCO)C2=CC=C(C=C2)Cl)N)C3=NC=NC4=C3C=CN4 [AZD5363]; details: max 10 µM
How it was run: as §1

AZD5153 = compound: COc1nnc2ccc(N3CCC(c4ccc(OCCN5CCN(C)C(=O)[C@H]5C)cc4)CC3)nn12 [AZD5153]; details: max 1 µM
How it was run: as §1

MK-2206 = compound: NC1(c2ccc(-c3nc4ccn5c(=O)[nH]nc5c4cc3-c3ccccc3)cc2)CCC1 [MK-2206]; details: max 10 µM
How it was run: as §1

AZD1390 = compound: CC(C)n1c(=O)n(C)c2cnc3cc(F)c(-c4ccc(OCCCN5CCCCC5)nc4)cc3c21 [AZD1390]; details: max 0.3 µM
How it was run: as §1

Olaparib = compound: O=C(c1cc(Cc2n[nH]c(=O)c3ccccc23)ccc1F)N1CCN(C(=O)C2CC2)CC1 [Olaparib]; details: max 10 µM
How it was run: as §1

[1] = compound: O=C(Nc1ccc2[nH]nc(-c3ccncc3)c2c1)[C@@H]1CCN(CC(=O)N2CCN(c3ccc(-c4ncccn4)cc3)CC2)C1; details: max 5 µM
How it was run: as §1

Savolitinib = compound: C[C@@H](c1ccc2nccn2c1)n1nnc2ncc(-c3cnn(C)c3)nc21 [Savolitinib]; details: max 1 µM
How it was run: as §1

Selumetinib = compound: Cn1cnc2c(F)c(Nc3ccc(Br)cc3Cl)c(C(=O)NOCCO)cc21 [Selumetinib]; details: max 10 µM
How it was run: as §1

Etoposide = compound: COc1cc([C@@H]2c3cc4c(cc3[C@@H](O[C@@H]3O[C@@H]5CO[C@@H](C)O[C@H]5[C@H](O)[C@H]3O)[C@H]3COC(=O)[C@H]23)OCO4)cc(OC)c1O [Etoposide]; details: max 10 µM
How it was run: as §1

Crizotinib = compound: C[C@@H](Oc1cc(-c2cnn(C3CCNCC3)c2)cnc1N)c1c(Cl)ccc(F)c1Cl [Crizotinib]; details: max 10 µM
How it was run: as §1

AZD7648 = compound: Cc1cc2ncnn2cc1Nc1ncc2c(n1)n(C1CCOCC1)c(=O)n2C [AZD7648]; details: max 10 µM
How it was run: as §1

AZD2811 = compound: CCN(CCO)CCCOc1ccc2c(Nc3cc(CC(=O)Nc4cccc(F)c4)[nH]n3)ncnc2c1 [AZD2811]; details: max 1 µM
How it was run: as §1

Gemcitabine = compound: Nc1ccn([C@@H]2O[C@H](CO)[C@@H](O)C2(F)F)c(=O)n1 [Gemcitabine]; details: max 0.3 µM
How it was run: as §1

Venetoclax = compound: CC1(C)CCC(CN2CCN(c3ccc(C(=O)NS(=O)(=O)c4ccc(NCC5CCOCC5)c([N+](=O)[O-])c4)c(Oc4cnc5[nH]ccc5c4)c3)CC2)=C(c2ccc(Cl)cc2)C1 [Venetoclax]; details: max 1 µM
How it was run: as §1

Doxorubicin = compound: COc1cccc2c1C(=O)c1c(O)c3c(c(O)c1C2=O)C[C@@](O)(C(=O)CO)C[C@@H]3O[C@H]1C[C@H](N)[C@H](O)[C@H](C)O1 [Doxorubicin]; details: max 1 µM
How it was run: as §1

AZD8186 = compound: C[C@@H](Nc1cc(F)cc(F)c1)c1cc(C(=O)N(C)C)cc2c(=O)cc(N3CCOCC3)oc12 [AZD8186]; details: max 10 µM
How it was run: as §1

Prexasertib = compound: COc1cccc(OCCCN)c1-c1cc(Nc2cnc(C#N)cn2)n[nH]1 [Prexasertib]; details: max 1 µM
How it was run: as §1

SG3199 = compound: CC1=CN2[C@@H](C1)C=NC3=CC(=C(C=C3C2=O)OC)OCCCCCOC4=C(C=C5C(=C4)N=C[C@@H]6CC(=CN6C5=O)C)OC [SG3199]; details: max 0.001 µM
How it was run: as §1

Alisertib = compound: COc1cc(Nc2ncc3c(n2)-c2ccc(Cl)cc2C(c2c(F)cccc2OC)=NC3)ccc1C(=O)O [Alisertib]; details: max 10 µM
How it was run: as §1

AZD5991 = compound: Cc1c2c(nn1C)CSCc1cc(n(C)n1)CSc1cc(c3ccccc3c1)OCCCc1c(C(=O)O)n(C)c3c-2c(Cl)ccc13 [AZD5991]; details: max 1 µM
How it was run: as §1

AZD0156 = compound: CN(C)CCCOc1ccc(-c2ccc3ncc4c(c3c2)n(C2CCOCC2)c(=O)n4C)cn1 [AZD0156]; details: max 3 µM
How it was run: as §1

Paclitaxel = compound: CC(=O)O[C@H]1C(=O)[C@@]2(C)[C@H]([C@H](OC(=O)c3ccccc3)[C@]3(O)C[C@H](OC(=O)[C@H](O)[C@@H](NC(=O)c4ccccc4)c4ccccc4)C(C)=C1C3(C)C)[C@]1(OC(C)=O)CO[C@@H]1C[C@@H]2O [Paclitaxel]; details: max 3 µM
How it was run: as §1

5-Fluorouracil = compound: O=c1[nH]cc(F)c(=O)[nH]1 [5-Fluorouracil]; details: max 20 µM
How it was run: as §1

Taselisib = compound: Cc1nc(-c2cn3c(n2)-c2ccc(-c4cnn(C(C)(C)C(N)=O)c4)cc2OCC3)n(C(C)C)n1 [Taselisib]; details: max 10 µM
How it was run: as §1

AZD6738 = compound: C[C@@H]1COCCN1C2=NC(=NC(=C2)C3(CC3)[S@](=N)(=O)C)C4=C5C=CNC5=NC=C4 [AZD6738]; details: max 10 µM
How it was run: as §1

Cell Line | IC50, cell viability 72 h (AZD1775) [µM] | IC50, cell viability 72 h (SRA737) [µM] | IC50, cell viability 72 h (Lapatinib) [µM] | IC50, cell viability 72 h (AZD4320) [µM] | IC50, cell viability 72 h (SN-38) [µM] | IC50, cell viability 72 h (Carboplatin) [µM] | IC50, cell viability 72 h (Gefitinib) [µM] | IC50, cell viability 72 h (Palbociclib) [µM] | IC50, cell viability 72 h (Dasatinib) [µM] | IC50, cell viability 72 h (Trametinib) [µM] | IC50, cell viability 72 h (AZD5363) [µM] | IC50, cell viability 72 h (AZD5153) [µM] | IC50, cell viability 72 h (MK-2206) [µM] | IC50, cell viability 72 h (AZD1390) [µM] | IC50, cell viability 72 h (Olaparib) [µM] | IC50, cell viability 72 h [1] [µM] | IC50, cell viability 72 h (Savolitinib) [µM] | IC50, cell viability 72 h (Selumetinib) [µM] | IC50, cell viability 72 h (Etoposide) [µM] | IC50, cell viability 72 h (Crizotinib) [µM] | IC50, cell viability 72 h (AZD7648) [µM] | IC50, cell viability 72 h (AZD2811) [µM] | IC50, cell viability 72 h (Gemcitabine) [µM] | IC50, cell viability 72 h (Venetoclax) [µM] | IC50, cell viability 72 h (Doxorubicin) [µM] | IC50, cell viability 72 h (AZD8186) [µM] | IC50, cell viability 72 h (Prexasertib) [µM] | IC50, cell viability 72 h (SG3199) [µM] | IC50, cell viability 72 h (Alisertib) [µM] | IC50, cell viability 72 h (AZD5991) [µM] | IC50, cell viability 72 h (AZD0156) [µM] | IC50, cell viability 72 h (Paclitaxel) [µM] | IC50, cell viability 72 h (5-Fluorouracil) [µM] | IC50, cell viability 72 h (Taselisib) [µM] | IC50, cell viability 72 h (AZD6738) [µM]
OVCAR-5 (Ovarian Carcinoma) | > 3 | > 10 | > 10 | > 1 | > 0.3 | > 10 | > 10 | > 10 | 0.381 | 0.0896 | > 10 | 0.677 | > 10 | > 0.3 | > 10 | 1.66 | > 1 | 2.15 | > 10 | > 10 | > 10 | > 1 | > 0.3 | > 1 | > 1 | > 10 | 0.0405 | > 0.001 | > 10 | > 1 | > 3 | 0.12 | > 20 | 2.07 | 5.14
SAS (Oral Cavity Carcinoma) | 0.511 | > 10 | > 10 | > 1 | 0.00292 | > 10 | 9.89 | 5.61 | > 2 | 0.191 | > 10 | 0.115 | > 10 | > 0.3 | > 10 | 0.479 | > 1 | 6.14 | 1.13 | > 10 | > 10 | > 1 | 0.013 | > 1 | 0.226 | > 10 | 0.059 | > 0.001 | > 10 | > 1 | > 3 | 0.0777 | > 20 | 5.19 | 4.42
